In ChEMBL document CHEMBL1150894, “Three new manzamine congeners from amphimedon sponge” (J Nat Prod, 1998):
≈ marks a conversion by molar mass, not a printed value.

Tests used:
L1210 = experiment: Cytotoxicity against mouse L1210 cells; assay type: functional, cell-based
Corynebacterium xerosis = experiment: Antibacterial activity against Corynebacterium xerosis; assay type: functional
Micrococcus luteus = experiment: Antibacterial activity against Sarcina lutea; assay type: functional

Row | SMILES | IC50 (L1210) [µg/mL] | MIC (Corynebacterium xerosis) [µg/mL] | MIC (Micrococcus luteus) [µg/mL]
1 | O[C@]12C=C(c3nccc4c3[nH]c3ccccc34)[C@@H]3CCN(CCCC/C=C\CC1)C[C@@]31C[C@@H]3/C=C\CCCCN3[C@H]12 [MANZAMINE A] | 1.4 (≈ 2.55 µM) | 5.7 (≈ 10.4 µM) | 2.3 (≈ 4.19 µM)
2 | O[C@]12C=C(C3=NCCc4c3[nH]c3ccccc43)[C@@H]3CCN(CC/C=C\CCCC1)C[C@@]31CC/C=C\CCCCN[C@H]12 | 0.5 (≈ 0.904 µM) | 12.5 (≈ 22.6 µM) | 12.5 (≈ 22.6 µM)
